Patent US20130203649A1, “INHIBITORS OF TLR SIGNALING BY TARGETING TIR DOMAIN INTERFACES” (UNIVERSITY OF MARYLAND, BALTIMORE, priority 2012, published 2013)
No end group written: not given here.

Key:
TLR4 = test: LPS-induced STAT1-Y701 phosphorylation in macrophages (immunoblotting); format: cell-based, mouse; settings: 2 h after LPS
TLR4/TRAM = target: T1, TLR4/TRAM (Mus musculus, UniProt Q9QUK6); test: TLR4/TRAM coimmunoprecipitation in transfected HEK293T cells; format: cell-based; settings: 20 μM peptide, 1 h
T1 construct: TLR4-Cer expression vector was described earlier (1); expressed in transfected cells; host or cells: HEK293T
T1 sequence (Q9QUK6 26-835): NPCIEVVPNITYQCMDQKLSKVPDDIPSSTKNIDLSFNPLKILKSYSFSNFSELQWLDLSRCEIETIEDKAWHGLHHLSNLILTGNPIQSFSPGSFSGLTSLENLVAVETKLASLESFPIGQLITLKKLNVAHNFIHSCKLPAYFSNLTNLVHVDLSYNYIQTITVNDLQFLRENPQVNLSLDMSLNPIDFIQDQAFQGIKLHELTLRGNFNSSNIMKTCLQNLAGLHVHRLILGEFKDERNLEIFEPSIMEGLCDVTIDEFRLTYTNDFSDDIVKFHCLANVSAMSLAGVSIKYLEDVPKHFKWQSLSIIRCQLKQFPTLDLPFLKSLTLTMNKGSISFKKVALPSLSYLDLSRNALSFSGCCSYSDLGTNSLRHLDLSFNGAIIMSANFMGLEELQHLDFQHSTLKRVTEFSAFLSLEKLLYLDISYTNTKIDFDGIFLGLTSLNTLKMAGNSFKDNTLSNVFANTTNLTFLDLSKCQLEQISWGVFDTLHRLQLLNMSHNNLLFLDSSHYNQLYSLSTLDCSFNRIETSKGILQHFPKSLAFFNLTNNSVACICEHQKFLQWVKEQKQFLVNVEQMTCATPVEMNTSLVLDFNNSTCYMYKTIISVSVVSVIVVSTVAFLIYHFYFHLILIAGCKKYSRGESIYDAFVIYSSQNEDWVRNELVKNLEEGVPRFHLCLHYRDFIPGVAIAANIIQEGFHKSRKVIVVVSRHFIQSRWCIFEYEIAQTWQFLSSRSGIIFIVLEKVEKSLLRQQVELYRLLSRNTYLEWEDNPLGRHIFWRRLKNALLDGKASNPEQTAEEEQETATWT
Experimental: (§1) FIG. 9. TM4, TM6, and TR6 block adapter recruitment to TLR4. (A) A total of 6×10^5 HEK293T cells was transfected with 1 μg pcDNA3.1-mTLR4-Cer and pEF-BOS-mTRAM-HA. Twenty-four hours posttransfection, the cells were treated with 20 μM of each peptide for 1 h. Cell lysates were immunoprecipitated with anti-GFP Ab and blotted with anti-HA-HRP. (B) A total of 2×10^6 mouse peritoneal macrophages was pretreated with 20 μM of each peptide for 30 min prior to stimulation with 100 ng/ml LPS. Cell extracts were obtained 30 min after LPS treatment, immunoprecipitated with goat anti-TLR4 Ab, and blotted with rabbit anti-MyD88 or anti-TLR4 Ab. Data are representative of three independent experiments.
(§2) HEK293T cells were transfected with indicated plasmids using Superfect Transfection Reagent (Qiagen). […] Protein was quantified using Bio-Rad protein quantification kit. Equal amount of protein was loaded and analyzed by 10% SDS-PAGE and immunoblotting. The cell extracts containing equal amount of protein were incubated with 1 μg Ab for 2 h, followed by 4-h incubation with 25 μl protein G agarose beads (Roche); the beads were then washed four times with lysis buffer, boiled in […] sample loading buffer, and analyzed by immunoblotting. […]

TLR4/MyD88 = test: LPS-induced TLR4/MyD88 coimmunoprecipitation in mouse peritoneal macrophages; format: cell-based; settings: 20 μM peptide 30 min before LPS 100 ng/ml
Experimental: as §1, §2

| Sequence | LPS-induced STAT1-Y701 phosphorylation (TLR4) | TLR4/TRAM coimmunoprecipitation (TLR4/TRAM) | LPS-induced TLR4/MyD88 association (TLR4/MyD88) |
| --- | --- | --- | --- |
| RQIKIWFQNRRMKWKKCLQDAIDHSGFT [TF5] | inhibit | – | – |
| RQIKIWFQNRRMKWKKPGFLRDPWCKYQML [TR6] | – | inhibited TLR4/TRAM association, although less efficiently than TM6 | efficiently prevented |
